Tests used:
[1] = target: T1, NLRP3 inflammasome (Homo sapiens, UniProt Q96P20); experiment: IL-1β secretion assay (NLRP3 IC50) in LPS-primed, nigericin-activated THP-1 cells, HTRF; assay type: cell-based; settings: monocytic THP-1 cells; LPS 10 ng/mL 3 h priming, then compound + nigericin 10 μM 2 h; relative IC50, 10 concentrations, geometric mean
T1 construct: endogenous in cells; host or cells: THP-1 monocytic cells
How it was run: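 THP-1 cells primed with LPS 10 ng/mL for 3 h at 37° C., then compound (10-point 1:3 dilution, 0.1% DMSO) added with 10 μM nigericin for 2 h. Supernatant IL-1β measured by HTRF; relative IC50 from a 4-parameter logistic fit, reported as geometric mean.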

[2] = tested on: NF-kB pathway (TNF-α secretion by THP-1 cells); experiment: TNF-α secretion assay in LPS-stimulated THP-1 cells, Lumit immunoassay; assay type: cell-based, human; settings: monocytic THP-1 cells, LPS 10 ng/mL, relative IC50, 10 concentrations, geometric mean
How it was run: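 THP-1 monocytes in RPMI with 5% FBS were treated with compound, then stimulated with 10 ng/mL LPS for 3 h. Secreted TNF-α was measured in-plate by Lumit immunoassay. Relative IC50 came from 10-concentration curves fitted with a 4-parameter logistic model, reported as geometric mean.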

T1 sequence (Q96P20 whole entry): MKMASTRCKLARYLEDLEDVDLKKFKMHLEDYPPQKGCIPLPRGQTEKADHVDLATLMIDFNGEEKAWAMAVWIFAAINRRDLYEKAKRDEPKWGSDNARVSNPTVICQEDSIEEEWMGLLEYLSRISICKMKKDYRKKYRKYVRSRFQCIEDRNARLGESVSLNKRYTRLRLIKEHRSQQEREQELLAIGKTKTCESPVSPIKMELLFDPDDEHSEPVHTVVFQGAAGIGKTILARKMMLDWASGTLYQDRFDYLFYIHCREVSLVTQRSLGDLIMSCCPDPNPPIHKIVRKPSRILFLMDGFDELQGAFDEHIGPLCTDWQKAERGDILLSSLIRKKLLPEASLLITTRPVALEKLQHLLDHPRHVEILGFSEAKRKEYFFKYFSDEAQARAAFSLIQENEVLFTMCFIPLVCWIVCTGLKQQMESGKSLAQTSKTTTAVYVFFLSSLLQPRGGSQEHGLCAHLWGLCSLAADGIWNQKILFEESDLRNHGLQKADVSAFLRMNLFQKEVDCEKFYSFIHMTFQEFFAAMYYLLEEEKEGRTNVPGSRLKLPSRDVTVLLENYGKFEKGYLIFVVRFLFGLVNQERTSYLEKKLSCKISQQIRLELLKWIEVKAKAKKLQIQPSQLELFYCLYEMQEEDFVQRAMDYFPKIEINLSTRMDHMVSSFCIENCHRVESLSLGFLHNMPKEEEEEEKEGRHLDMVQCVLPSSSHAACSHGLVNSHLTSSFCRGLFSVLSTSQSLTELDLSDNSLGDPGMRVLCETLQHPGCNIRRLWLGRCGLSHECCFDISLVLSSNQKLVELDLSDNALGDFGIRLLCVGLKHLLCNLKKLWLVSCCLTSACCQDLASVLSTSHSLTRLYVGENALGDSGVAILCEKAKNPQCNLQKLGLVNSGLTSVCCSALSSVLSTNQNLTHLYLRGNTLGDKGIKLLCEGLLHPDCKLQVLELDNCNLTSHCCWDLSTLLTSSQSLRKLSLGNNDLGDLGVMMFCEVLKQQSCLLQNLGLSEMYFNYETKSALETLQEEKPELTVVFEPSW

| IC50 [1] | IC50 ([2]; Homo sapiens, THP-1, 3 h) | IC50 ([2]; 3 hours) | Structure (SMILES) |
| --- | --- | --- | --- |
| 221 nM | > 10 µM | – | CNC(=O)C[C@H]1CN(c2ccc(-c3c(C)cc(C)cc3O)nn2)CCO1 (single isomer, unassigned) [Example 143] |
| 95 nM | > 10 µM | – | OC[C@H]1CCCN(c2ccc(-c3c(O)cc(Cl)cc3Cl)nn2)C1 [Example 34, 3,5-dichloro-2-[6-[(3S)-3-(hydroxymethyl)-1-piperidyl]pyridazin-3-yl]phenol] |
| 76 nM | > 10 µM | – | CC(=O)NC[C@H]1CN(c2ccc(-c3c(C)cc(Cl)cc3O)nn2)CCO1 [Example 280, N-[[(2S)-4-[6-(4-chloro-2-hydroxy-6-methylphenyl)pyridazin-3-yl]morpholin-2-yl]methyl]acetamide] |
| 1 nM | > 10 µM | – | CCN1CC[C@H]2OCCN(c3cc(C)c(-c4ccc(Cl)cc4O)nn3)[C@H]2C1 [Example 437, 2-[6-[(4aS,8aR)-6-ethyl-3,4a,5,7,8,8a-hexahydro-2H-pyrido[4,3-b][1,4]oxazin-4-yl]-4-methyl-pyridazin-3-yl]-5-chloro-phenol] |
| 355 nM | > 10 µM | – | Cc1cc(C)c(-c2ccc(N3CCO[C@@H](CCO)C3)nn2)c(O)c1 (single isomer, unassigned) [Example 234] |
| 87 nM | > 10 µM | – | Cc1cc(C(F)(F)F)cc(O)c1-c1ccc(N2CCO[C@H](CF)C2)nn1 (single isomer, unassigned) [Example 284] |
| 68 nM | > 10 µM | – | Cc1cc(-c2c(C)cc(Cl)cc2O)nnc1N1CCO[C@H](CO)C1 [Example 133, 5-chloro-2-[6-[(2S)-2-(hydroxymethyl)morpholin-4-yl]-5-methyl-pyridazin-3-yl]-3-methyl-phenol] |
| 6 nM | > 10 µM | – | Cc1cc(Cl)cc(O)c1-c1ccc(N2CCO[C@H](CO)C2)nn1 [Example 63, 5-chloro-2-[6-[(2S)-2-(hydroxymethyl)morpholin-4-yl]pyridazin-3-yl]-3-methyl-phenol] |
| 47 nM | > 10 µM | – | Cc1cc(C(F)(F)F)cc(O)c1-c1ccc(N2CCO[C@H]3CCN(C)C[C@@H]32)nn1 (single isomer, unassigned) [Example 343] |
| 93 nM | > 10 µM | – | [O-][S+]1CCN(c2ccc(-c3c(O)cc(Cl)cc3Cl)nn2)CC1 [Example 400, 3,5-dichloro-2-[6-(1-oxo-1,4-thiazinan-4-yl)pyridazin-3-yl]phenol] |
| 34 nM | > 10 µM | – | CC(=O)NC[C@@H]1CCCN(c2ccc(-c3c(C)cc(Cl)cc3O)nn2)C1 [Example 211, N-[[(3S)-1-[6-(4-chloro-2-hydroxy-6-methyl-phenyl)pyridazin-3-yl]-3-piperidyl]methyl]acetamide] |
| 192 nM | > 10 µM | – | NC[C@@H]1CCN(c2ccc(-c3c(O)cc(Cl)cc3Cl)nn2)C1 [Example 23, 2-[6-[(3S)-3-(aminomethyl)pyrrolidin-1-yl]pyridazin-3-yl]-3,5-dichloro-phenol] |
| 73 nM | > 10 µM | – | Cc1cc(C(F)(F)F)cc(O)c1-c1ccc(N2CCO[C@@H](CO)C2)nn1 [Example 266, 2-[6-[(2R)-2-(hydroxymethyl)morpholin-4-yl]pyridazin-3-yl]-3-methyl-5-(trifluoromethyl)phenol] |
| 352 nM | > 10 µM | – | Cc1cc(C(F)(F)F)cc(O)c1-c1ccc(N2CCOC(C(C)(C)O)C2)nn1 (centres unmarked) [Example 26, 2-[6-[2-(1-hydroxy-1-methyl-ethyl)morpholin-4-yl]pyridazin-3-yl]-3-methyl-5-(trifluoromethyl)phenol] |
| < 0.3 nM | > 10 µM | – | Cc1cc(N2CCO[C@@H]3CCN(C)C[C@@H]32)nnc1-c1ccc(C(F)(F)F)cc1O [Example 430, 2-[6-[(4aS,8aR)-6-methyl-3,4a,5,7,8,8a-hexahydro-2H-pyrido[4,3-b][1,4]oxazin-4-yl]-4-methyl-pyridazin-3-yl]-5-(trifluoromethyl)phenol] |
| 0.3 nM | > 10 µM | – | CCN1CC[C@H]2OCCN(c3ccc(-c4c(C)cc(Cl)cc4O)nn3)[C@H]2C1 (single isomer, unassigned) [Example 313] |
| 11 nM | > 10 µM | – | CCc1cccc(O)c1-c1ccc(N2CCO[C@@H]3CCN(C)C[C@@H]32)nn1 [Example 358, 2-[6-[(4aS,8aR)-6-methyl-3,4a,5,7,8,8a-hexahydro-2H-pyrido[4,3-b][1,4]oxazin-4-yl]pyridazin-3-yl]-3-ethyl-phenol] |

| IC50 [1] | IC50 ([2]; Homo sapiens, THP-1, 3 h) | IC50 ([2]; 3 hours) | Structure (SMILES) |
| --- | --- | --- | --- |
| 2 nM | > 10 µM | – | Cc1cc(C(F)(F)F)cc(O)c1-c1ccc(N2CCO[C@H]3CCN(C)C[C@H]32)nn1 (racemic) [Example 226, 2-[6-[rac-(4aR,8aS)-6-methyl-3,4a,5,7,8,8a-hexahydro-2H-pyrido[4,3-b][1,4]oxazin-4-yl]pyridazin-3-yl]-3-methyl-5-(trifluoromethyl)phenol] |
| 270 nM | > 10 µM | – | Cc1cc(C)c(-c2ccc(N3CC[C@H](O)C3)nn2)c(O)c1 [Example 71, (3S)-1-[6-(2-hydroxy-4,6-dimethyl-phenyl)pyridazin-3-yl]pyrrolidin-3-ol] |
| 85 nM | > 10 µM | – | Cc1cc(C)c(-c2cc(C#N)c(N3CCO[C@H](CO)C3)nn2)c(O)c1 [Example 158, 6-(2-hydroxy-4,6-dimethyl-phenyl)-3-[(2S)-2-(hydroxymethyl)morpholin-4-yl]pyridazine-4-carbonitrile] |
| 3 nM | > 10 µM | – | Cc1cc(C)c(-c2ccc(N3CCO[C@H]4CCN(C)C[C@H]43)nn2)c(O)c1 (racemic) [Example 225, 2-[6-[rac-(4aR,8aS)-6-methyl-3,4a,5,7,8,8a-hexahydro-2H-pyrido[4,3-b][1,4]oxazin-4-yl]pyridazin-3-yl]-3,5-dimethyl-phenol] |
| 4 nM | > 10 µM | – | Cc1cc(C(F)(F)F)cc(O)c1-c1ccc(N2C[C@@H](CO)O[C@H](CO)C2)nn1 [Example 199, 2-[6-[(2S,6S)-2,6-bis(hydroxymethyl)morpholin-4-yl]pyridazin-3-yl]-3-methyl-5-(trifluoromethyl)phenol] |
| 171 nM | > 10 µM | – | OC[C@@H]1CN(c2cc(C(F)(F)F)c(-c3ccc(Cl)cc3O)nn2)CCO1 [Example 160, 5-chloro-2-[6-[(2S)-2-(hydroxymethyl)morpholin-4-yl]-4-(trifluoromethyl)pyridazin-3-yl]phenol] |
| 1 nM | > 10 µM | – | CCN1CC[C@@H]2OCCN(c3ccc(-c4c(C)cc(C(F)(F)F)cc4O)nn3)[C@@H]2C1 (racemic) [Example 210, 2-[6-[rac-(4aR,8aS)-6-ethyl-3,4a,5,7,8,8a-hexahydro-2H-pyrido[4,3-b][1,4]oxazin-4-yl]pyridazin-3-yl]-3-methyl-5-(trifluoromethyl)phenol] |
| 17 nM | > 10 µM | – | CC(=O)N1CC[C@H]2OCCN(c3ccc(-c4c(C)cc(C(F)(F)F)cc4O)nn3)[C@H]2C1 (single isomer, unassigned) [Example 262] |
| 151 nM | > 10 µM | – | Cc1ccc(-c2nnc(N3CCO[C@H](CO)C3)cc2C(F)F)c(O)c1 [Example 144, 2-[4-(difluoromethyl)-6-[(2S)-2-(hydroxymethyl)morpholin-4-yl]pyridazin-3-yl]-5-methyl-phenol] |
| 13 nM | > 10 µM | – | Cc1cc(C(F)(F)F)cc(O)c1-c1ccc(N2C[C@H](CO)O[C@H](C)C2)nn1 [Example 302, 2-[6-[(2R,6R)-2-(hydroxymethyl)-6-methyl-morpholin-4-yl]pyridazin-3-yl]-3-methyl-5-(trifluoromethyl)phenol] |
| 128 nM | > 10 µM | – | CC(=O)NC[C@@H]1CN(c2ccc(-c3c(C)cc(C(F)(F)F)cc3O)nn2)CCO1 [Example 216, N-[[(2R)-4-[6-[2-hydroxy-6-methyl-4-(trifluoromethyl)phenyl]pyridazin-3-yl]morpholin-2-yl]methyl]acetamide] |
| 50 nM | – | > 10 µM | CC(=O)NCCC1CN(c2ccc(-c3c(C)cc(C(F)(F)F)cc3O)nn2)CCO1 (single isomer, unassigned) [Example 278, N-[2-[4-[6-[2-hydroxy-6-methyl-4-(trifluoromethyl)phenyl]pyridazin-3-yl]morpholin-2-yl]ethyl]acetamide] |
| 164 nM | > 10 µM | – | Cc1cc(C)c(-c2ccc(N3CCO[C@H](CCO)C3)nn2)c(O)c1 (single isomer, unassigned) [Example 233] |
| 70 nM | 7.13 µM | – | Cc1cc(C)c(-c2ccc(N3CC(CO)CCC3=O)nn2)c(O)c1 (centres unmarked) [Example 235, 1-[6-(2-hydroxy-4,6-dimethyl-phenyl)pyridazin-3-yl]-5-(hydroxymethyl) piperidin-2-one] |
| 235 nM | > 10 µM | – | Cc1cc(C)c(-c2ccc(N3CC[C@H](CO)C3=O)nn2)c(O)c1 (single isomer, unassigned) [Example 139] |
| 605 nM | > 10 µM | – | COC[C@H]1CCCN1c1ccc(-c2c(C)cc(C(F)(F)F)cc2O)nn1 [Example 14, 2-[6-[(2R)-2-(methoxymethyl)pyrrolidin-1-yl]pyridazin-3-yl]-3-methyl-5-(trifluoromethyl)phenol] |

| Structure (SMILES) | IC50 [1] | IC50 ([2]; Homo sapiens, THP-1, 3 h) | IC50 ([2]; 3 hours) |
| --- | --- | --- | --- |
| Cc1cccc(O)c1-c1ccc(N2CC[C@H]3CCN(C)C[C@H]32)nn1 (single isomer, unassigned) [Example 416] | 1 nM | > 10 µM | – |
